Data: ChEMBL document CHEMBL1147210, “Synthesis and antibacterial activity of levofloxacin derivatives with certain bulky residues on piperazine ring” (Eur J Med Chem, 2007)
In brackets after ≈: the same amount, converted by molar mass.

Legend:
Staphylococcus aureus [1] = assay: Antibacterial activity against Staphylococcus aureus ATCC 25923 after 18 hrs; format: functional; conditions: ATCC 25923, 18 h
Staphylococcus aureus [2] = assay: Antibacterial activity against Staphylococcus aureus ATCC 6538p after 18 hrs; format: functional
Staphylococcus aureus [3] = assay: Antibacterial activity against methicillin-resistant Staphylococcus aureus isolate 1 after 18 hrs; format: functional
Staphylococcus aureus [4] = assay: Antibacterial activity against methicillin-resistant Staphylococcus aureus isolate 2 after 18 hrs; format: functional
[5] = test system: Staphylococcus epidermidis; assay: Antibacterial activity against Staphylococcus epidermidis ATCC 14940 after 18 hrs; format: functional; conditions: ATCC 14940, 18 h
[6] = test system: Staphylococcus epidermidis; assay: Antibacterial activity against Staphylococcus epidermidis ATCC 12228 after 18 hrs; format: functional; conditions: ATCC 12228, 18 h
Bacillus subtilis = assay: Antibacterial activity against Bacillus subtilis ATCC 6051 after 18 hrs; format: functional; conditions: ATCC 6051, 18 h
Enterococcus faecalis = assay: Antibacterial activity against Enterococcus faecalis NCTC 6013 after 18 hrs; format: functional; conditions: NCTC 6013, 18 h
Serratia marcescens = assay: Antibacterial activity against Serratia marcescens PTCC 1111 after 18 hrs; format: functional
Klebsiella pneumoniae = assay: Antibacterial activity against Klebsiella pneumoniae ATCC 10031 after 18 hrs; format: functional; conditions: ATCC 10031, 18 h
Salmonella typhi = assay: Antibacterial activity against Salmonella typhi ATCC 19430 after 18 hrs; format: functional, Salmonella enterica subsp. enterica serovar Typhi; conditions: Salmonella enterica, ATCC 19430, 18 h
Shigella flexneri = assay: Antibacterial activity against Shigella flexneri NCTC 8516 after 18 hrs; format: functional; conditions: NCTC 8516, 18 h
Escherichia coli [7] = assay: Antibacterial activity against Escherichia coli ATCC 25922 after 18 hrs; format: functional; conditions: ATCC 25922, 18 h
Escherichia coli [8] = assay: Antibacterial activity against Escherichia coli NCTC 12900 after 18 hrs; format: functional; conditions: NCTC 12900, 18 h
Pseudomonas aeruginosa = assay: Antibacterial activity against Pseudomonas aeruginosa ATCC 27853 after 18 hrs; format: functional; conditions: ATCC 27853, 18 h
MCF7 = assay: Cytotoxic activity against human MCF7 cells after 48 hrs by MTT reduction assay; format: functional, cell-based; conditions: MCF7, 48 h

Compound | MIC (Staphylococcus aureus [1]) [µg/mL] | MIC (Staphylococcus aureus [2]) [µg/mL] | MIC (Staphylococcus aureus [3]) [µg/mL] | MIC (Staphylococcus aureus [4]) [µg/mL] | MIC [5] [µg/mL] | MIC [6] [µg/mL] | MIC (Bacillus subtilis) [µg/mL] | MIC (Enterococcus faecalis) [µg/mL] | MIC (Serratia marcescens) [µg/mL] | MIC (Klebsiella pneumoniae) [µg/mL] | MIC (Salmonella typhi) [µg/mL] | MIC (Shigella flexneri) [µg/mL] | MIC (Escherichia coli [7]) [µg/mL] | MIC (Escherichia coli [8]) [µg/mL] | MIC (Pseudomonas aeruginosa) [µg/mL] | IC50 (MCF7) [µM]
C[C@H]1COc2c(N3CCN(C)CC3)c(F)cc3c(=O)c(C(=O)O)cn1c23.C[C@H]1COc2c(N3CCN(C)CC3)c(F)cc3c(=O)c(C(=O)O)cn1c23.O [LEVOFLOXACIN] | 0.5 | 0.25 | 0.25 | 0.25 | 0.5 | 0.25 | 0.5 | 1 | 0.5 | 0.25 | 0.03 | 0.03 | – | – | – | –
C[C@H]1COc2c(N3CCN(C/C(=N\O)c4ccc(Cl)cc4Cl)CC3)c(F)cc3c(=O)c(C(=O)O)cn1c23 | 0.5 (≈ 0.91 µM) | 0.5 (≈ 0.91 µM) | 0.5 (≈ 0.91 µM) | 0.5 (≈ 0.91 µM) | 0.5 (≈ 0.91 µM) | 0.5 (≈ 0.91 µM) | 1 (≈ 1.82 µM) | 4 (≈ 7.28 µM) | > 4 | > 4 | 4 (≈ 7.28 µM) | 4 (≈ 7.28 µM) | 4 (≈ 7.28 µM) | 4 (≈ 7.28 µM) | > 4 | –
C[C@H]1COc2c(N3CCN(C/C(=N\O)c4ccc(Cl)cc4)CC3)c(F)cc3c(=O)c(C(=O)O)cn1c23 | 0.5 (≈ 0.971 µM) | 0.25 (≈ 0.485 µM) | 0.5 (≈ 0.971 µM) | 0.25 (≈ 0.485 µM) | 0.12 (≈ 0.233 µM) | 0.25 (≈ 0.485 µM) | 0.25 (≈ 0.485 µM) | 0.06 (≈ 0.117 µM) | > 4 | > 4 | 0.5 (≈ 0.971 µM) | 0.5 (≈ 0.971 µM) | 2 (≈ 3.88 µM) | 1 (≈ 1.94 µM) | > 4 | 5.2
COc1cc([C@@H]2c3cc4c(cc3[C@@H](O[C@@H]3O[C@@H]5CO[C@@H](C)O[C@H]5[C@H](O)[C@H]3O)[C@H]3COC(=O)[C@H]23)OCO4)cc(OC)c1O [ETOPOSIDE] | – | – | – | – | – | – | – | – | – | – | – | – | – | – | – | 3.2
Cc1ccc(/C(CN2CCN(c3c(F)cc4c(=O)c(C(=O)O)cn5c4c3OC[C@@H]5C)CC2)=N/O)cc1 | 1 (≈ 2.02 µM) | 0.5 (≈ 1.01 µM) | 0.5 (≈ 1.01 µM) | 0.5 (≈ 1.01 µM) | 0.5 (≈ 1.01 µM) | 0.5 (≈ 1.01 µM) | 0.5 (≈ 1.01 µM) | 0.25 (≈ 0.506 µM) | > 4 | > 4 | 1 (≈ 2.02 µM) | 1 (≈ 2.02 µM) | 1 (≈ 2.02 µM) | 1 (≈ 2.02 µM) | > 4 | –
C[C@H]1COc2c(N3CCN(C/C(=N\O)c4ccc(Br)cc4)CC3)c(F)cc3c(=O)c(C(=O)O)cn1c23 | 0.5 (≈ 0.894 µM) | 0.5 (≈ 0.894 µM) | 0.5 (≈ 0.894 µM) | 0.5 (≈ 0.894 µM) | 0.12 (≈ 0.215 µM) | 0.25 (≈ 0.447 µM) | 0.12 (≈ 0.215 µM) | 0.06 (≈ 0.107 µM) | > 4 | > 4 | 0.5 (≈ 0.894 µM) | 0.5 (≈ 0.894 µM) | 4 (≈ 7.15 µM) | 1 (≈ 1.79 µM) | > 4 | 5.2
COc1ccc(C(=O)CN2CCN(c3c(F)cc4c(=O)c(C(=O)O)cn5c4c3OC[C@@H]5C)CC2)cc1 | 0.5 (≈ 1.01 µM) | 0.5 (≈ 1.01 µM) | 0.5 (≈ 1.01 µM) | 1 (≈ 2.02 µM) | 0.25 (≈ 0.505 µM) | 0.25 (≈ 0.505 µM) | 0.25 (≈ 0.505 µM) | 0.06 (≈ 0.121 µM) | 4 (≈ 8.07 µM) | 4 (≈ 8.07 µM) | 0.5 (≈ 1.01 µM) | 0.5 (≈ 1.01 µM) | 0.5 (≈ 1.01 µM) | 0.5 (≈ 1.01 µM) | > 4 | –
C[C@H]1COc2c(N3CCN(C/C(=N\O)c4ccccc4)CC3)c(F)cc3c(=O)c(C(=O)O)cn1c23 | 0.5 (≈ 1.04 µM) | 0.5 (≈ 1.04 µM) | 0.5 (≈ 1.04 µM) | 1 (≈ 2.08 µM) | 0.5 (≈ 1.04 µM) | 0.5 (≈ 1.04 µM) | 0.25 (≈ 0.52 µM) | 4 (≈ 8.32 µM) | > 4 | 4 (≈ 8.32 µM) | 0.5 (≈ 1.04 µM) | 0.5 (≈ 1.04 µM) | 4 (≈ 8.32 µM) | 4 (≈ 8.32 µM) | > 4 | –
COc1ccc(/C(CN2CCN(c3c(F)cc4c(=O)c(C(=O)O)cn5c4c3OC[C@@H]5C)CC2)=N/O)cc1 | 1 (≈ 1.96 µM) | 0.5 (≈ 0.979 µM) | 1 (≈ 1.96 µM) | 0.5 (≈ 0.979 µM) | 0.5 (≈ 0.979 µM) | 0.5 (≈ 0.979 µM) | 0.12 (≈ 0.235 µM) | 0.06 (≈ 0.118 µM) | > 4 | > 4 | 0.5 (≈ 0.979 µM) | 0.5 (≈ 0.979 µM) | 0.5 (≈ 0.979 µM) | 0.5 (≈ 0.979 µM) | > 4 | –
